{"source": "patent US20070129330A1", "about": "“1,3-Diaza-dibenzo[e,h]azulenes for the treatment of central nervous system diseases and disorders” (Pliva-Istrazivacki Institut d.o.o., priority 2003, published 2007)", "key": {"5-HT2A receptor": {"molecular_target": "T1, 5-HT2A receptor (Homo sapiens, UniProt P28223)", "T1 construct": "expressed in transfected cells; host or cells: CHO-K1 (alternatively human cortex tissue)", "T1 sequence (P28223 whole entry)": "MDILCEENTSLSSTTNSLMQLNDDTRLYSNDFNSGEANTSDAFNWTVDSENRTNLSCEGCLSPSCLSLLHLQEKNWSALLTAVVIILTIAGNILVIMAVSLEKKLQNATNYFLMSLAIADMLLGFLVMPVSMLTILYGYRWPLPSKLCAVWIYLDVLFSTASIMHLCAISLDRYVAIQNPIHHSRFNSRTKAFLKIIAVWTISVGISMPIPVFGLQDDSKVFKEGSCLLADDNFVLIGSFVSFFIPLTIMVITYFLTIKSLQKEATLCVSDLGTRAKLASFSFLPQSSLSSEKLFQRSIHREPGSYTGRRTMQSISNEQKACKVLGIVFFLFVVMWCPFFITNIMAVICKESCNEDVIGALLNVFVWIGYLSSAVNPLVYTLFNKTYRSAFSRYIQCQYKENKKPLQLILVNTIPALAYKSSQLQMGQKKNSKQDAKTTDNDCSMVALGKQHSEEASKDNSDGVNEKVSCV", "assay": "radioligand binding assay for 5-HT2A receptor ([3H]-ketanserin competitive binding)", "conditions": "human cortex or recombinant 5-HT2A receptor expressed in CHO-K1 cells; for IC50: read-out: binding affinity to 5-HT2A serotonin receptor expressed as IC50 value; for Ki: read-out: binding affinity to 5-HT2A serotonin receptor, Ki value", "description": "(§1) The effect of the compounds of the present invention on the neurochemical steady state was determined by in vitro investigations such as a radionuclide-marked radioligand binding assay for 5-HT2A (Bonhaus D. W. Br. J. Pharmacol. 1995, 115:622; Saucier C. J. Neurochem. 1997, 68:1998) and 5-HT2C receptors (Wolf W.A. J. Neurochem. 1997, 69:1449), in vitro binding assay for the σ1 receptor (Thomson W. and Donn R. Arthritis Res. 2002, 4: 302-306) and by in vivo investigations in a tail suspension test (Vogel H. G. and Vogel W. H. Drug Discovery and Evaluation Pharmacological Assays, Springer 1997, 304), in amphetamine-induced hyperlocomotion in mice (Millan M. J. et al, 1998 J. Pharmacol. Exp. Ther. 287: 167-186), in a forced swim test in mice (Porsolt R. D. et al. Arch. Int. Pharmacodyn. 1977, 229:327-336), in meta-chlorophenyl piperazine (m-CPP) test on rats (Drug Dev. Res. 1989, 18:119-144), and in apomorphine, tryptamine and norepinephrine (ATN) test in rats (Arch. Int. Pharmacodyn. 1977, 227:238-253).\n(§2) A small concentration of a radioligand having a great affinity for binding to a receptor was incubated with a tissue sample enriched with a certain receptor (1-5 mg of tissue) in a buffered medium (0.2-5 mL). Recombinant human HT2A and HT2C receptors were expressed in CHO-K1 or COS-7 cells and were also used for competitive binding. During incubation the radioligand bound to the receptor. When a binding balance was achieved, the receptors to which the radioligand was bound were separated from those to which said ligand was not bound, and the radioactivity of the receptor/radioligand complex was measured. The interaction of the tested compounds with receptors was tested in competitive binding experiments. Various concentrations of tested compounds were added to the incubation mixture containing a prepared tissue enriched with corresponding receptors and the radioligand. The radioligand binding was inhibited by the test compounds proportionally to the affinity of a certain compound for the receptor and to the concentration of the compound.\n(§3) The radioligand used for the determination of binding to 5-HT2A receptor was [^3H]-ketanserin and the tissue used was human cortex or recombinant 5-HT2A receptor expressed in CHO-K1 cells. The radioligand used for the determination of binding to 5-HT2C receptor was [^3H]-mesulergine and the tissue used was choroid plexus or recombinant 5-HT2C receptor expressed in CHO-K1 cells.\n(§4) It is anticipated that similar results will be observed for other compounds of the invention."}, "5-HT2C receptor": {"molecular_target": "T2, 5-HT2C receptor (Homo sapiens, UniProt P28335)", "T2 construct": "expressed in transfected cells; host or cells: CHO-K1 (alternatively choroid plexus tissue)", "T2 sequence (P28335 33-458)": "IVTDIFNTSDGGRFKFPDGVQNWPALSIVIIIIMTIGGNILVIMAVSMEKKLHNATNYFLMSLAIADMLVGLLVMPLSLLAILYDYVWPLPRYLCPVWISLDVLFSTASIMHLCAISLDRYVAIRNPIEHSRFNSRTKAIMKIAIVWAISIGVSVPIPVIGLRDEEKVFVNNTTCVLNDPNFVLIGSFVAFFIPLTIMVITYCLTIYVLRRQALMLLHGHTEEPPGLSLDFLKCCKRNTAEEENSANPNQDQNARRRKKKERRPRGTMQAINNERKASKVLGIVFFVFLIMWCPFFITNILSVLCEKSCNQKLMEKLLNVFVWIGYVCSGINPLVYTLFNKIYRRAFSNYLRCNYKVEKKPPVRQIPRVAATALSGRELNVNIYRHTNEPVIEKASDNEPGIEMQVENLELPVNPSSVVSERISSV", "assay": "radioligand binding assay for 5-HT2C receptor ([3H]-mesulergine competitive binding)", "conditions": "choroid plexus or recombinant 5-HT2C receptor expressed in CHO-K1 cells; for IC50: read-out: binding affinity to 5-HT2C serotonin receptor expressed as IC50 value; for Ki: read-out: binding affinity to 5-HT2C serotonin receptor, Ki value", "description": "as §1, §2, §3, §4"}}}
{"smiles": "Clc1ccc2c(c1)-c1[nH]cnc1-c1ccccc1O2", "note": "[11chloro-1H-8-oxa-1,3-diaza-dibenzo[e,h]azulene]", "values": [{"measurement": "IC50", "setting": "5-HT2A receptor", "value": "< 200", "unit": "nM"}, {"measurement": "Ki", "setting": "5-HT2A receptor", "value": "< 100", "unit": "nM"}, {"measurement": "IC50", "setting": "5-HT2C receptor", "value": "< 200", "unit": "nM"}, {"measurement": "Ki", "setting": "5-HT2C receptor", "value": "< 100", "unit": "nM"}]}
{"smiles": "CN(C)CCCOCc1nc2c([nH]1)-c1cc(Cl)ccc1Sc1ccccc1-2", "note": "[[3-(11-chloro-1H-8-thia-1,3-diaza-dibenzo[e,h]azulen-2-ylmethoxy)-propyl]-dimethyl-amine]", "values": [{"measurement": "IC50", "setting": "5-HT2A receptor", "value": "< 200", "unit": "nM"}, {"measurement": "Ki", "setting": "5-HT2A receptor", "value": "< 100", "unit": "nM"}, {"measurement": "IC50", "setting": "5-HT2C receptor", "value": "< 200", "unit": "nM"}, {"measurement": "Ki", "setting": "5-HT2C receptor", "value": "< 100", "unit": "nM"}]}
{"smiles": "CN(C)CCOCc1nc2c(n1C)-c1ccccc1Sc1ccccc1-2", "note": "[dimethyl-[2-(1-methyl-1H-8-thia-1,3-diaza-dibenzo[e,h]azulen-2-ylmethoxy)-ethyl]-amine]", "values": [{"measurement": "IC50", "setting": "5-HT2A receptor", "value": "< 200", "unit": "nM"}, {"measurement": "Ki", "setting": "5-HT2A receptor", "value": "< 100", "unit": "nM"}, {"measurement": "IC50", "setting": "5-HT2C receptor", "value": "< 200", "unit": "nM"}, {"measurement": "Ki", "setting": "5-HT2C receptor", "value": "< 100", "unit": "nM"}]}
{"smiles": "CN(C)CCCOc1ccccc1-c1nc2c([nH]1)-c1ccccc1Sc1ccccc1-2", "note": "[dimethyl-{3-[2-(1H-8-thia-1,3-diaza-dibenzo[e,h]azulen-2-yl)-phenoxy]-propyl}-amine]", "values": [{"measurement": "IC50", "setting": "5-HT2A receptor", "value": "< 200", "unit": "nM"}, {"measurement": "Ki", "setting": "5-HT2A receptor", "value": "< 100", "unit": "nM"}, {"measurement": "IC50", "setting": "5-HT2C receptor", "value": "< 200", "unit": "nM"}, {"measurement": "Ki", "setting": "5-HT2C receptor", "value": "< 100", "unit": "nM"}]}
